In patent US20210278408A1, “METHODS OF TREATMENT OF CANCER WITH SUBSTITUTED PYRROLE AND PYRAZOLE COMPOUNDS AND DIAGNOSIS OF CANCERS SUSCEPTIBLE TO TREATMENT WITH SUBSTITUTED PYRROLE AND PYRAZOLE COMPOUNDS” (Bantam Pharmaceutical, LLC, priority 2018, published 2021):
Where two headings read alike, the source gives them in different places.

Tested on: 407 cancer cell lines
Assay: Cell viability of cancer cell lines (IC50), CellTiter-Glo Viability Assay, 96 h
Assay type: cell-based
Conditions: for IC50: read-out: Absolute IC50
Description: Viability was determined by using the 50% inhibitory concentration (IC50) as determined with the CellTiter-Glo® Viability Assay (Promega).
Experiments were initiated by first thawing and equilibrating the CellTiter-Glo® Buffer to room temperature. The lyophilized CellTiter-Glo® Substrate was also equilibrated to room temperature. The lyophilized substrate was reconstituted with the CellTiter-Glo® buffer to form the CellTiter-Glo® Reagent.
Cells were harvested during the logarithmic growth period, counted, and the cell concentration adjusted to 4.44×10^4 cells/mL using culture medium.
Cells were allowed to grow overnight and the following day, the TO reading was obtained by adding 10 μL culture medium to each well of Plate A. The plate was allowed to equilibrate at room temperature for thirty minutes, after which 50 μL CellTiter-Glo® reagent was added to each well. The contents were mixed for 5 min on an orbital shaker to induce cell lysis. Plates were incubated for 20 minutes to stabilize the luminescent signal and the TO luminescence recorded.
Test plate B was incubated for 96 h in the humidified incubator at 37° C. with 5% CO2.
Following the incubation, the plate was equilibrated at room temperature for thirty minutes. CellTiter-Glo® (50 μL) was added to each well of the plate and contents mixed for five minutes on an orbital shaker to induce cell lysis. The luminescent signal was allowed to stabilize at room temperature for 20 minutes and the luminescence recorded.
IC50 (EC50) was calculated using a dose-response curve, fitted using a nonlinear regression model with a sigmoidal dose response. Survival rate was calculated using the formula:
The Surviving rate (%)=(LumTest article−LumMedium control)/(LumNon-treated−LumMedium control)×100%.
Absolute IC50 (EC50) was calculated according to the dose-response curve generated by the statistical software (GraphPad Prism 5.0).

N.N.[Cl][Pt][Cl] [Cisplatin, reference compound]
IC50 (MV-4-11 cells, 96 h): 0.41 µM
IC50 (MX-1): 2.39 µM
IC50 (Molt-4): 0.7 µM
IC50 (MsTo 211H): 2.5 µM
IC50 (NAMALWA CSN/70): 0.28 µM
IC50 (NAMALWA cells, 96 h): 0.63 µM
IC50 (NB4 cells, 96 h): 0.84 µM
IC50 (NCI-H23 cells, 96 h): 0.75 µM
IC50 (NCI-H69 cells, 96 h): 3.28 µM
IC50 (NCI-H82, 96 h): 1.83 µM
IC50 (NCI-H146 cells, 96 h): 1.81 µM
IC50 (NCI-H187): 0.68 µM
IC50 (NCI-H209 cells, 96 h): 0.44 µM
IC50 (NCI-H226): 3.56 µM
IC50 (NCI-H292 cells, 96 h): 2.25 µM
IC50 (NCI-H322 cells, 96 h): 10.8 µM
IC50 (NCI-H358 cells, 96 h): 6.07 µM
% inhibition at top conc. (NCI-H441 cells, 96 h): 74.99%
IC50 (NCI-H441 cells, 96 h): 6.18 µM
IC50 (NCI-H446 cells, 96 h): 1.93 µM
IC50 (NCI-H460 cells, 96 h): 2.77 µM
IC50 (NCI-H508 cells, 96 h): 8.02 µM
IC50 (NCI-H520 cells, 96 h): 10.7 µM
IC50 (NCI-H522 cells, 96 h): 4.49 µM
IC50 (NCI-H526 cells, 96 h): 0.33 µM
IC50 (NCI-H596): 2.06 µM
IC50 (NCI-H661 cells, 96 h): 6.42 µM
IC50 (NCI-H716 cells, 96 h): 8.99 µM
IC50 (NCI-H727 cells, 96 h): 13.2 µM
IC50 (NCI-H747 cells, 96 h): 7.3 µM
IC50 (NCI-H820 cells, 96 h): 0.79 µM
IC50 (NCI-H929): 3.07 µM
IC50 (NCI-H1048 cells, 96 h): 1.37 µM
IC50 (NCI-H1155 cells, 96 h): 2.15 µM
IC50 (NCI-H1299 cells, 96 h): 2.67 µM
IC50 (NCI-H1373): 1.45 µM
IC50 (NCI-H1395): 2.91 µM
IC50 (NCI-H1435): 14.8 µM
IC50 (NCI-H1437 cells, 96 h): 5.67 µM
IC50 (NCI-H1563): 16.9 µM
IC50 (NCI-H1568 cells, 96 h): 0.95 µM
IC50 (NCI-H1573 cells, 96 h): 10.6 µM
IC50 (NCI-H1581 cells, 96 h): 2.98 µM
IC50 (NCI-H1648 cells, 96 h): 8.25 µM
IC50 (NCI-H1650): 5.12 µM
IC50 (NCI-H1651 cells, 96 h): 0.62 µM
IC50 (NCI-H1666 cells, 96 h): 6.16 µM
IC50 (NCI-H1688): 13.8 µM
IC50 (NCI-H1703 cells, 96 h): 6.11 µM
IC50 (NCI-H1781 cells, 96 h): 0.64 µM
IC50 (NCI-H1838 cells, 96 h): 6.41 µM
IC50 (NCI-H1915 cells, 96 h): 5.23 µM
IC50 (NCI-H1975 cells, 96 h): 3.24 µM
IC50 (NCI-H1993 cells, 96 h): 10.4 µM
IC50 (NCI-H2009): 16.7 µM
IC50 (NCI-H2052): 5.77 µM
IC50 (NCI-H2087 cells, 96 h): 1.01 µM
IC50 (NCI-H2122 cells, 96 h): 8.93 µM
IC50 (NCI-H2170 cells, 96 h): 1.02 µM
IC50 (NCI-H2228 cells, 96 h): 4.6 µM
% inhibition at top conc. (NCI-H2452): 80.91%
IC50 (NCI-H2452): 35.5 µM
IC50 (NCI-H3122 cells, 96 h): 5.73 µM
IC50 (NCI-N87, 96 h): 0.95 µM
IC50 (NK-92MI): 1.2 µM
IC50 (NOZ): 1.19 µM
IC50 (NUGC-3 cells, 96 h): 0.25 µM
IC50 (NUGC-4 cells, 96 h): 3.65 µM
IC50 (OCI-AML3): 2.34 µM
IC50 (OCI-LY7 cells, 96 h): 1.81 µM
IC50 (OCUG-1): 16.3 µM
IC50 (OCUM-1 cells, 96 h): 9.94 µM
IC50 (OCUM-2D cells, 96 h): 2.59 µM
IC50 (OCUM-2M cells, 96 h): 3.62 µM
% inhibition at top conc. (OE19, 96 h): 81.07%
IC50 (OE19, 96 h): 19.4 µM
IC50 (OPM2): 0.79 µM
IC50 (OS-RC-2): 3.5 µM
IC50 (OSC-19 cells, 96 h): 8.56 µM
IC50 (OVCAR-3 cells, 96 h): 5.11 µM
IC50 (OVCAR-8 cells, 96 h): 3.13 µM
IC50 (OZ): 15 µM
IC50 (PANC-1): 4.61 µM
IC50 (PC-3): 4.66 µM
IC50 (PC-9 cells, 96 h): 1.97 µM
IC50 (PEER): 2.04 µM
IC50 (PL45): 1.76 µM
IC50 (PLC/PRF/5): 8.47 µM
IC50 (Pfeiffer cells, 96 h): 1.99 µM
IC50 (RBE cells, 96 h): 4.14 µM
IC50 (RD-ES): 0.8 µM
IC50 (RKO): 3.08 µM
IC50 (RPMI 8226 cells, 96 h): 4.04 µM
IC50 (RPMI-2650 cells, 96 h): 1.89 µM
IC50 (RS4;11): 0.33 µM
IC50 (RT4 cells, 96 h): 4.2 µM
IC50 (RT112/84): 0.93 µM
IC50 (Raji cells, 96 h): 2.07 µM
IC50 (Ramos cells, 96 h): 0.64 µM
IC50 (Reh): 0.43 µM
IC50 (SCC-4, 96 h): 2.96 µM
IC50 (SCC-9 cells, 96 h): 8.37 µM
IC50 (SCC-15 cells, 96 h): 3.3 µM
IC50 (SCH cells, 96 h): 6.82 µM
IC50 (SF268 cells, 96 h): 1.43 µM
IC50 (SF-126 cells, 96 h): 1.95 µM
IC50 (SF-763): 7.56 µM
IC50 (SH-SY5Y): 0.27 µM
IC50 (SJSA-1): 3.29 µM
IC50 (SK-BR-3): 0.6 µM
IC50 (SK-CO-1 cells, 96 h): 0.21 µM
IC50 (SK-HEP-1 cells, 96 h): 13.2 µM
IC50 (SK-LU-1 cells, 96 h): 1.38 µM
IC50 (SK-MEL-5, 96 h): 3.2 µM
IC50 (SK-MEL-28, 96 h): 5.62 µM
IC50 (SK-MES-1): 2.63 µM
IC50 (SK-N-FI cells, 96 h): 1.34 µM
IC50 (SK-N-SH): 0.36 µM
IC50 (SK-NEP-1 cells, 96 h): 0.6 µM
IC50 (SK-OV-3 cells, 96 h): 2.88 µM
IC50 (SK-UT-1 cells, 96 h): 6.94 µM
IC50 (SNU-1 cells, 96 h): 2.15 µM
IC50 (SNU-5, 96 h): 2.1 µM
IC50 (SNU-81): 3.7 µM
IC50 (SNU-216 cells, 96 h): 6.07 µM
IC50 (SNU-354): 13.8 µM
% inhibition at top conc. (SNU-368): 81.47%
IC50 (SNU-368): 20.2 µM
IC50 (SNU-387): 43.4 µM
IC50 (SNU-398): 4.9 µM
IC50 (SNU-423 cells, 96 h): 6.06 µM
IC50 (SNU-449): 3.52 µM
IC50 (SNU-475 cells, 96 h): 0.52 µM
IC50 (SNU-484 cells, 96 h): 4.96 µM
IC50 (SNU-601 cells, 96 h): 0.6 µM
IC50 (SNU-620 cells, 96 h): 7.03 µM
IC50 (SNU-638 cells, 96 h): 4.48 µM
IC50 (SNU-668 cells, 96 h): 4.96 µM
IC50 (SNU-719 cells, 96 h): 13.3 µM
IC50 (SNU-739): 0.81 µM
IC50 (SNU-761 cells, 96 h): 1.39 µM
IC50 (SNU-2535 cells, 96 h): 16.3 µM
IC50 (SNU-C2A): 1.77 µM
IC50 (SNU-C5 cells, 96 h): 2.36 µM
IC50 (ST486 cells, 96 h): 0.26 µM
IC50 (SU-DHL-1): 0.28 µM
IC50 (SU-DHL-4): 0.34 µM
IC50 (SU-DHL-5 cells, 96 h): 0.5 µM
IC50 (SU-DHL-6 cells, 96 h): 1.85 µM
IC50 (SU-DHL-8): 0.7 µM
IC50 (SUM159PT): 3.15 µM
IC50 (SUP-B15): 1.39 µM
IC50 (SW48 cells, 96 h): 1.27 µM
IC50 (SW 156 cells, 96 h): 1.03 µM
IC50 (SW480): 1.82 µM
IC50 (SW579 cells, 96 h): 1.41 µM
IC50 (SW626 cells, 96 h): 3.97 µM
IC50 (SW684 cells, 96 h): 33.4 µM
% inhibition at top conc. (SW756 cells, 96 h): 84.79%
IC50 (SW780 cells, 96 h): 1.98 µM
IC50 (SW837 cells, 96 h): 4.21 µM
IC50 (SW948 cells, 96 h): 17.8 µM
IC50 (SW1116 cells, 96 h): 7.94 µM
% inhibition at top conc. (SW1271): 85.04%
IC50 (SW1271): 17.1 µM
IC50 (SW1417 cells, 96 h): 6.91 µM
IC50 (SW1990): 0.85 µM
IC50 (SW-13): 1.38 µM
IC50 (SiHa cells, 96 h): 10.5 µM
IC50 (T24 cells, 96 h): 1.04 µM
IC50 (T47D): 5.25 µM
IC50 (T84): 3.17 µM
IC50 (TF-1): 5.11 µM
IC50 (TJ905 cells, 96 h): 9.46 µM
IC50 (TT cells, 96 h): 28.1 µM
IC50 (Toledo cells, 96 h): 0.49 µM
IC50 (U251 cells, 96 h): 3.52 µM
IC50 (U266B1): 4.53 µM
IC50 (U-87 MG cells, 96 h): 4.05 µM
IC50 (U-2932 cells, 96 h): 0.79 µM
IC50 (UACC-812 cells, 96 h): 4.61 µM
IC50 (UO.31 cells, 96 h): 4.4 µM
IC50 (WM-266-4 cells, 96 h): 3.12 µM
IC50 (WSU-DLCL2 cells, 96 h): 1.37 µM
IC50 (WSU-NHL cells, 96 h): 0.23 µM
IC50 (Y-79 cells, 96 h): 4.56 µM
IC50 (YCC-1 cells, 96 h): 6.62 µM
IC50 (YCC-2 cells, 96 h): 0.72 µM
IC50 (YCC-6 cells, 96 h): 2.62 µM
IC50 (YCC-10, 96 h): 0.69 µM
IC50 (YCC-11 cells, 96 h): 0.62 µM
IC50 (Z-138): 1.02 µM
IC50 (ZR-75-1): 5.73 µM
IC50 (ZR-75-30, 96 h): 2.99 µM
